# Reference: patent US20090069300A1, “ISOQUINOLINYL AND ISOINDOLINYL DERIVATIVES AS HISTAMINE-3 ANTAGONISTS” (Wyeth, priority 2007, published 2009)
# Structures can show the parent of a compound that is named as a salt.
row,melting point [°C],SMILES
1,174 to 175,"O=C1c2ccc(-n3cccn3)cc2CCN1CCN1CCCC1 (as salt: hydrochloride) [Example 37, 6-(1H-pyrazol-1-yl)-2-(2-(pyrrolidin-1-yl)ethyl)-3,4-dihydroisoquinolin-1(2H)-one hydrochloride]"
2,178 to 180,"COCCNC(=O)c1ccc(-c2ccc3c(c2)CCN(CCN2CCCC2)C3=O)cc1 (as salt: hydrochloride) [Example 69, N-(2-methoxyethyl)-4-[1-oxo-2-(2-pyrrolidin-1-ylethyl)-1,2,3,4-tetrahydroisoquinolin-6-yl]benzamide]"
3,184 to 185,"C[C@@H]1CCCN1CCN1CCc2cc(Oc3ccc(C#N)cn3)ccc2C1=O (as salt: hydrochloride) [Example 48, 6-[(2-{2-[(2R)-2-methylpyrrolidin-1-yl]ethyl}-1-oxo-1,2,3,4-tetrahydroisoquinolin-6-yl)oxy]nicotinonitrile]"
4,284 to 285,"O=C(Nc1nccs1)c1ccc(-c2ccc3c(c2)CCN(CCN2CCCC2)C3=O)cc1 (as salt: hydrochloride) [Example 130, 4-[1-oxo-2-(2-pyrrolidin-1-ylethyl)-1,2,3,4-tetrahydroisoquinolin-6-yl]-N-1,3-thiazol-2-ylbenzamide]"
5,228 to 229,"CN(C)C(=O)c1ccc(-c2ccc3c(c2)CCN(CCN2CCCC2)C3=O)c(F)c1 (as salt: hydrochloride) [Example 137, 3-fluoro-N,N-dimethyl-4-[1-oxo-2-(2-pyrrolidin-1-ylethyl)-1,2,3,4-tetrahydroisoquinolin-6-yl]benzamide]"
6,235 to 236,"CNC(=O)c1ccc(-c2ccc3c(c2)CCN(CCN2CCCC2)C3=O)cc1 (as salt: hydrochloride) [Example 59, N-methyl-4-[1-oxo-2-(2-pyrrolidin-1-ylethyl)-1,2,3,4-tetrahydroisoquinolin-6-yl]benzamide]"
7,215 to 216,COC(=O)c1ccc(Oc2ccc3c(c2)CCN(CCN2CCCC2)C3=O)cc1 (as salt: hydrochloride)
8,258 to 260,"CNC(=O)c1ccc(-c2ccc3c(c2)CCN(CCN2CCC[C@H]2C)C3=O)cc1 (as salt: hydrochloride) [Example 78, N-methyl-4-(2-{2-[(2R)-2-methylpyrrolidin-1-yl]ethyl}-1-oxo-1,2,3,4-tetrahydroisoquinolin-6-yl)benzamide]"
9,203 to 205,"N#Cc1ccc(Oc2ccc3c(c2)CCN(CCN2CCCC2)C3=O)cn1 (as salt: hydrochloride) [Example 52, 5-{[1-oxo-2-(2-pyrrolidin-1-ylethyl)-1,2,3,4-tetrahydroisoquinolin-6-yl]oxy}pyridine-2-carbonitrile]"
10,214 to 215,"C[C@@H]1CCCN1CCN1CCc2ccc(-c3ccc(C(=O)N4CCCC4)cc3)cc2C1=O (as salt: hydrochloride) [Example 86, 2-{2-[(2R)-2-methylpyrrolidin-1-yl]ethyl}-7-[4-(pyrrolidin-1-ylcarbonyl)phenyl]-3,4-dihydroisoquinolin-1(2H)-one]"
11,204 to 206,"N#Cc1cccc(-c2ccc3c(c2)CCN(CCN2CCCC2)C3=O)c1 (as salt: hydrochloride) [Example 15, 3-[1-oxo-2-(2-pyrrolidin-1-ylethyl)-1,2,3,4-tetrahydroisoquinolin-6-yl]benzonitrile]"
12,189 to 190,"N#Cc1ccc(Oc2ccc3c(c2)CCN(CCN2CCCC2)C3=O)nc1 (as salt: hydrochloride) [Example 47, 6-{[1-oxo-2-(2-pyrrolidin-1-ylethyl)-1,2,3,4-tetrahydroisoquinolin-6-yl]oxy}nicotinonitrile]"
13,225 to 226,"O=C(c1ccc(-c2ccc3c(c2)CCN(CCN2CCCC2)C3=O)c(F)c1)N1CCCC1 (as salt: hydrochloride) [Example 138, 6-[2-fluoro-4-(pyrrolidin-1-ylcarbonyl)phenyl]-2-(2-pyrrolidin-1-ylethyl)-3,4-dihydroisoquinolin-1(2H)-one]"
14,145 to 146,"C[C@@H]1CCCN1CCN1CCc2cc(C(=O)NC3Cc4ccccc4C3)ccc2C1=O (as salt: hydrochloride) [Example 148, N-(2,3-dihydro-1H-inden-2-yl)-2-{2-[(2R)-2-methylpyrrolidin-1-yl]ethyl}-1-oxo-1,2,3,4-tetrahydroisoquinoline-6-carboxamide]"
15,188 to 190,"C[C@@H]1CCCN1CCN1CCc2cc(-c3ccc(C(=O)NCC4CC4)cc3)ccc2C1=O (as salt: hydrochloride) [Example 73, N-(cyclopropylmethyl)-4-(2-{2-[(2R)-2-methylpyrrolidin-1-yl]ethyl}-1-oxo-1,2,3,4-tetrahydroisoquinolin-6-yl)benzamide]"
16,262 to 264,"NC(=O)c1ccc(-c2ccc3c(c2)CCN(CCN2CCCC2)C3)cc1 (as salt: hydrochloride) [Example 180, 4-[2-(2-pyrrolidin-1-ylethyl)-1,2,3,4-tetrahydroisoquinolin-6-yl]benzamide]"
17,245 to 248,"O=C(c1ccc(-c2ccc3c(c2)CCN(CCN2CCCC2)C3=O)cc1)N1CCCC1 (as salt: hydrochloride) [Example 54, 6-[4-(pyrrolidin-1-ylcarbonyl)phenyl]-2-(2-pyrrolidin-1-ylethyl)-3,4-dihydroisoquinolin-1(2H)-one hydrochloride]"
18,193 to 195,"COC[C@@H]1CCCN1C(=O)c1ccc(-c2ccc3c(c2)CCN(CCN2CCCC2)C3=O)cc1 (as salt: hydrochloride) [Example 128, 6-(4-{[(2S)-2-(methoxymethyl)pyrrolidin-1-yl]carbonyl}phenyl)-2-(2-pyrrolidin-1-ylethyl)-3,4-dihydroisoquinolin-1(2H)-one]"

row,melting point [°C],SMILES
1,250 to 251,C[C@@H]1CCCN1CCN1Cc2ccc(-c3ccc(F)cc3)cc2C1 (as salt: hydrochloride)
2,268 to 270,c1ccc(-c2ccc3c(c2)CCN(CCN2CCCC2)C3)cc1 [Example 178]
3,201 to 202,COc1ccc2c(c1)CCN(CCN1CCCC1)C2=O (as salt: hydrochloride)
4,211 to 213,"O=C(NCc1ccco1)c1ccc(-c2ccc3c(c2)CCN(CCN2CCCC2)C3=O)cc1 (as salt: hydrochloride) [Example 125, N-(2-furylmethyl)-4-[1-oxo-2-(2-pyrrolidin-1-ylethyl)-1,2,3,4-tetrahydroisoquinolin-6-yl]benzamide]"
5,182 to 184,"C[C@@H]1CCCN1CCN1CCc2cc(N3CCCCCC3)ccc2C1=O (as salt: hydrochloride) [Example 166, (R)-6-(azepan-1-yl)-2-(2-(2-methylpyrrolidin-1-yl)ethyl)-3,4-dihydroisoquinolin-1(2H)-one]"
6,190 to 191,"CON(C)C(=O)c1ccc(-c2ccc3c(c2)CCN(CCN2CCCC2)C3=O)cc1 (as salt: hydrochloride) [Example 102, N-methoxy-N-methyl-4-(1-oxo-2-(2-(pyrrolidin-1-yl)ethyl)-1,2,3,4-tetrahydroisoqui-nolin-6-yl)benzamide]"
7,209 to 210,"CCNC(=O)c1ccc(-c2ccc3c(c2)CCN(CCN2CCCC2)C3=O)c(F)c1 (as salt: hydrochloride) [Example 140, N-ethyl-3-fluoro-4-[1-oxo-2-(2-pyrrolidin-1-ylethyl)-1,2,3,4-tetrahydroisoquinolin-6-yl]benzamide]"
8,182 to 183,"C[C@@H]1CCCN1CCN1CCc2cc(N3CCCC3)ccc2C1=O (as salt: hydrochloride) [Example 165, (R)-2-(2-(2-methylpyrrolidin-1-yl)ethyl)-6-(pyrrolidin-1-yl)-3,4-dihydroisoquinolin-1(2H)-one]"
9,249 to 251,"N#Cc1ccc(-c2ccc3c(c2)CCN(CCN2CCCC2)C3=O)cc1 (as salt: hydrochloride) [Example 19, 4-[1-oxo-2-(2-pyrrolidin-1-ylethyl)-1,2,3,4-tetrahydroisoquinolin-6-yl]benzonitrile]"
10,241 to 242,"O=C(c1ccc(-c2ccc3c(c2)CCN(CCN2CCCC2)C3)cc1)N1CCCC1 (as salt: hydrochloride) [Example 184, 6-[4-(pyrrolidin-1-ylcarbonyl)phenyl]-2-(2-pyrrolidin-1-ylethyl)-1,2,3,4-tetrahydroisoquinoline]"
11,280 to 281,"CNC(=O)c1ccc(-c2ccc3c(c2)CCN(CCN2CCCC2)C3)cc1 (as salt: hydrochloride) [Example 181, N-methyl-4-[2-(2-pyrrolidin-1-ylethyl)-1,2,3,4-tetrahydroisoquinolin-6-yl]benzamide]"
12,211 to 213,"O=C1c2ccc(-c3ccccc3F)cc2CCN1CCN1CCCC1 (as salt: hydrochloride) [Example 12, 6-(2-fluorophenyl)-2-(2-pyrrolidin-1-ylethyl)-3,4-dihydroisoquinolin-1(2H)-one]"
13,241 to 243,"O=C1c2ccc(-c3ccc(F)cc3)cc2CCN1CCN1CCCCC1 (as salt: hydrochloride) [Example 43, 6-(4-fluorophenyl)-2-(2-piperidin-1-ylethyl)-3,4-dihydroiso-quinolin-1(2H)-one hydrochloride]"
14,266 to 268,"CCNC(=O)c1ccc(-c2ccc3c(c2)CCN(CCN2CCCC2)C3)cc1 (as salt: hydrochloride) [Example 182, N-ethyl-4-[2-(2-pyrrolidin-1-ylethyl)-1,2,3,4-tetrahydroisoquinolin-6-yl]benzamide]"
15,254 to 255,"C[C@@H]1CCCN1CCN1CCc2cc(Oc3ccc(C#N)cc3)ccc2C1=O (as salt: hydrochloride) [Example 49, 4-[(2-{2-[(2R)-2-methylpyrrolidin-1-yl]ethyl}-1-oxo-1,2,3,4-tetrahydroisoquinolin-6-yl)oxy]benzonitrile]"
16,240 to 241,CCCNC(=O)c1ccc(-c2ccc3c(c2)CCN(CCN2CCCC2)C3=O)cc1 (as salt: hydrochloride)
17,135 to 137,"O=C1c2ccc(-c3cccc(OC(F)(F)F)c3)cc2CCN1CCN1CCCC1 (as salt: hydrochloride) [Example 13, 2-(2-pyrrolidin-1-ylethyl)-6-[3-(trifluoromethoxy)phenyl]-3,4-dihydroisoquinolin-1(2H)-one]"
